Row | SMILES | melting point [°C]
1 | NS(=O)(=O)OCCOS(N)(=O)=O | 98.5 to 101
2 | CC(C)(C)c1csc(NC(=O)c2ccccc2)c1C#N | 130
3 | CCOc1cc(C=C2SC(=S)N(N(C)C)C2=O)ccc1O | 194 to 198
4 | Cc1cc(-c2cc(C(F)(F)F)n3ncc(-c4nc(-c5cnc(N)nc5)no4)c3n2)ccc1C(F)(F)F | 272
5 | O=C(Nc1ccc(F)c(Cl)c1F)C(F)(F)F | 73 to 74
6 | Cc1nc(NCc2ccccn2)c2c(-c3ccccc3)csc2n1 | 110 to 112
7 | O=C1OCCC1C(=O)c1ccc(F)cc1[N+](=O)[O-] (stereo not drawn) | 87 to 89
8 | CC(C)CNC(=O)NS(=O)(=O)c1ccc(CCNC(=O)N2CCCCC2=O)cc1 | 179 to 181
9 | Nc1ccc([N+](=O)[O-])c(NC(=O)c2ccccc2)c1 | 203 to 207
10 | CCCN(CCCCNc1ncc(Cc2ccnc(O)c2)c(=O)[nH]1)c1ccccn1 | 138 to 140
11 | CN(C)c1ccc2c(=O)[nH]c(=O)n(CCCCN3CCC(OC(c4ccccc4)c4ccccc4)CC3)c2c1 | 203 to 204
12 | CCOC(=O)c1ccc(OCc2ccc(Cl)cc2)cc1 | 83 to 84
13 | CC1(CC(CO)CO)SCCS1 | 72 to 73
14 | CCN[C@H]1CCC[C@H](Oc2ccc3[nH]ncc3c2C)C1 (relative stereo) | 95 to 97
15 | CC(C)(C)c1cc(C(=O)OCc2ccccc2)cc(C(C)(C)C)c1O | 80 to 83
16 | CC(C)(C)NC(=O)[C@@H]1CCCN1C(=O)[C@@H](O)[C@@H](C(=O)[C@H](CC(N)=O)NCc1cnc2ccccc2n1)C(N)c1ccccc1 (stereo partly drawn) | 116 to 119
17 | COc1ccc(C(=O)Nc2ccccc2)cc1Nc1cccc(Cl)c1 | 168 to 170
18 | O=C1C(=Cn2ccnc2)c2ccccc2N1c1cccc(Cl)c1 | 164 to 166
19 | O=C(Cc1cncs1)c1ccc(Cl)cc1Cl | 75 to 77
20 | CCCc1c(OCCOCCOCCOCCOc2ccc3ccc(OCC(=O)O)cc3c2C(C)=O)ccc(C(C)=O)c1O | 57 to 58

Row | SMILES | melting point [°C]
21 | CCc1nnc(-c2ccc(-c3ccc(C(=O)N4CCCc5cc6c(cc54)C4(CCN(C)CC4)CO6)cc3)c(C)c2)o1 | 241 to 243
22 | CON=CC(C)(C#N)NC(=O)C(Oc1ccc2ncc(Br)cc2c1)SC (stereo not drawn) | 138 to 145
23 | COc1ccc2c(c1)cc1n2CCC(COC(C)=O)C1 (stereo not drawn) | 98 to 100
24 | COC(=O)c1cc(Cl)ccc1N(C)S(=O)(=O)c1ccc(C)cc1 | 65.5 to 67
25 | CSc1nc2c(cnn2CC(O)c2ccccc2)c(=O)[nH]1 (stereo not drawn) | 208 to 209
26 | CCOC(=O)On1nnc2ccc(Cl)cc21 | 160 to 162
27 | CCCCCCCCCCCCCCCCCCOc1cc(O)cc(C(=O)OCc2ccccc2)c1 | 72 to 75
28 | CCOC(=O)Nc1ccc(C(=O)c2ccccc2)cc1COC1CCCCO1 (stereo not drawn) | 116
29 | CC(C)c1nc(-c2ccc(/C=C/C3(O)CN4CCC3CC4)cc2)no1 (stereo not drawn) | 142 to 144
30 | COc1ccc2c(c1)C(c1ccc(N)cc1)=NN(C(C)=O)C(C)C2 (stereo not drawn) | 237 to 238
31 | O=S(=O)(NCCc1ccc(CCO)cc1)c1cccc(C(F)(F)F)c1 | 70 to 72
32 | CC(C)Cc1nn(C)c(=O)c2cn(Cc3cccc4ccccc34)cc12 | 110 to 112
33 | CCOC(=O)c1cnn(-c2ccc3ccccc3n2)c1S(N)(=O)=O | 140 to 141
34 | CCCc1c(OCC2Cc3cc(CC(=O)OC)cc(F)c3O2)ccc(C(C)=O)c1O (stereo not drawn) | 80 to 82
35 | CON=C(C(=O)OC)c1cccc(OCc2ccccc2)c1 | 62 to 63
36 | N#CC(Cc1ccccc1)(Cc1ccccc1)C(=O)O | 194
37 | Cc1cc(-c2ccc(NC(=O)CCN3CCC(c4ccccc4)CC3)cc2)n[nH]c1=O | 239 to 240
38 | COc1ccc2cc(C(=O)C(C)N3CCN(Cc4ccccc4)CC3)ccc2c1 (stereo not drawn) | 149 to 150
39 | Cc1cccc(Nc2cc(-c3c(-c4cccc(C)c4)nc4cccnn34)ccn2)c1 | 195 to 196
40 | Cc1c(NC(=O)c2ccc(-c3ccc(F)cc3)cc2)ccc2cc(CN3CCCC3)cnc12 | 220 to 222

Continued, values first:

Row | melting point [°C] | SMILES
41 | 149 to 157 | COc1ccccc1Oc1c(NS(=O)(=O)c2ccc(C(C)(C)C)cc2)nc(-c2ncccn2)nc1OCCOc1ncc(-c2ccccn2)cn1
42 | 123 to 125 | O=c1c2ccc(Cl)cc2ncn1CCCCn1ccnc1
43 | 195 to 197 | COc1ccc(-n2nc(Sc3cc(Cl)cc(Cl)c3)c(C)c(C#N)c2=O)cc1
44 | 178 to 181 | O=C(c1c(-c2ccccc2)oc2ccccc2c1=O)N1CCN(c2ccccn2)CC1
45 | 209 to 211 | O=C(NC1CCN(CCCOc2ccc3c4c(c(=O)oc3c2)CCCC4)CC1)c1ccccc1O
46 | 308 to 310 | CC(=O)N1CCn2c(c(C3=C(c4cn(C)c5ccccc45)C(=O)NC3=O)c3ccccc32)C1
47 | 106 to 108 | COc1cc(C(C)C)ccc1C1(NC(=O)c2ccccc2)C(=O)c2ccccc2C1=O
48 | 38 to 43 | CC(C)OC(=O)c1cc(I)c(F)cc1Cl
49 | 132 to 134 | COc1ccc(-c2nc(C#N)cn2-c2ccc(OC)cc2)cc1
50 | 102 to 104 | c1cc2c3c(cccc3c1)C(NOCCCn1ccnc1)=N2
51 | 101 to 102 | O=C1C2=C(CCCC2)C(=S)N1c1ccc(Cl)cc1F
52 | 64 | CCOC(=O)COC(=O)COc1ccc(OCC(=O)OCC)cc1NC(=O)c1ccc(OCCCCc2ccccc2)cc1
53 | 141 to 143 | N#Cc1ncc(SCC(=O)O)nc1C#N
54 | 135 | CCOCCN(c1cccc2cc(C(N)=O)[nH]c12)S(=O)(=O)c1cccs1
55 | 128 | CCCc1nc(Br)c(C(=O)O)n1Cc1ccc(-c2ccccc2S(=O)(=O)NC(=O)NCc2ccccc2)cc1
56 | 215 | Cc1ccc(-c2ccc(S(C)(=O)=O)c(F)c2)n1-c1ccc(-c2cscn2)cc1
57 | 54 to 55 | CCC(=O)c1cc(Cl)ccc1NS(=O)(=O)C(F)(F)F
58 | 186 to 187 | O=C(CC1CCCC1)c1c(-c2ccc3c(Br)c(OCc4nnn[nH]4)ccc3c2)oc2ccccc12
59 | 225 to 230 | CCOC(=O)c1sc(NC(=O)NN)nc1C
60 | 138 to 140 | COc1cc2c(cc1OC)CN(CCCc1cccc(NC(=O)c3cccc4c(=O)c5cccc(OC)c5[nH]c34)c1)CC2
61 | 199 to 200 | COCCc1nc2c(N)nc3ccccc3c2n1CCCNC(=S)NC1CCCCC1
62 | 214 to 216 | CC(=O)c1c(C)c(NC(=O)CC(C)(C)C)c(C)c2c1S(=O)CC2c1ccc(C(C)C)cc1 (stereo not drawn)
63 | 170 to 172 | CCC(C(=O)N(C)C)C(C#N)(c1ccccc1)c1ccccc1 (stereo not drawn)
64 | 72 to 73 | OC(c1ccccc1)c1ccc(-c2ccccc2)cc1 (stereo not drawn)
65 | 213 to 214 | Cc1cc(OCc2ccc(-c3ccccc3C(=O)O)cc2)c2ncccc2n1
66 | 110 to 112 | NC(=O)CN1C(=O)C[C@@H]2CCCCCC[C@@H]21 (relative stereo)
67 | 133 to 134 | O=C(CCc1ccccc1)N[C@H](Cc1ccc(C(F)(F)F)cc1)[C@@H](O)c1ccc(Oc2ccccc2)cc1 (racemic)
68 | 138 to 139 | O=C(COc1noc(-c2ccccc2)c1Cl)NCCO[N+](=O)[O-]
